Reference: EP4789665A1, “TREATMENT OF HIS HYPORESPONDERS” (NewAmsterdam Pharma B.V., priority 2021, dated 2023)

Columns and labels:
[1] = Phase 2 study of obicetrapib as adjunct to high-intensity statin therapy: safety and tolerability (adverse events, laboratory values, vital signs); type: in vivo, human; settings: for Neoplasms benign, malignant and unspecified: including cysts and polyps; for AEs, total: subjects (%): safety population
Protocol: Patients were randomly assigned to receive one of the three treatments investigative treatments. All treatments were to be taken once daily with food for 8 weeks. Safety was assessed throughout the trial by monitoring adverse events and concomitant medication use, 12-lead electrocardiograms (ECGs), vital signs, laboratory safety assessments and physical examinations. Additional assessments included salivary cortisol, plasma aldosterone, high-sensitivity C-reactive protein (hsCRP) and endothelin 1.
Safety and tolerability profiles of obicetrapib assessed by clinical laboratory values and incidence of adverse events (AEs).
(§1) The primary outcome measure was LDL-C (percent change). Secondary outcome measures included ApoB, Non-HDL-C and HDL-C (percent change). The Intent-to-Treat (ITT) Population included all participants randomized into the study. The Modified ITT (mITT) Population included all participants in the ITT Population who receive at least 1 dose of any study drug and have a baseline value for the LDL-C assessment. The Safety Population included all participants who receive at least 1 dose of any study drug. The mITT Population was the primary population for the efficacy analyses. The primary efficacy analysis of the percent change in LDL-C was performed using a mixed model for repeated measures (MMRM) approach. In order to maintain the overall Type I error rate, the secondary efficacy endpoints were tested sequentially at the 0.05 significance level according to the pre-specified order of hierarchy. All safety endpoints were summarized descriptively. No statistical inference was applied to the safety endpoints. Plasma obicetrapib concentrations were summarized with descriptive statistics based on the PK Population.

[2] = Phase 2 study: plasma obicetrapib concentrations during PK follow-up after end of treatment; type: in vivo, human
Protocol: The screening period for this study took up to 2-weeks. Afterwards patients were randomized to placebo, 5 mg obicetrapib or 10 mg obicetrapib for an 8-week treatment period. After the treatment period, patients continued for a 4-week safety follow-up and a 15-week PK follow-up.
as §1

[3] = 5 mg group (N=40), listed as obicetrapib
[4] = 10 mg group (N=40), listed as obicetrapib
[5] = either obicetrapib treatment group (5 mg, 10 mg) compared with placebo

Structure (SMILES): CCOC(=O)N1c2ccc(C(F)(F)F)cc2[C@@H](N(Cc2cc(C(F)(F)F)cc(C(F)(F)F)c2)c2ncc(OCCCC(=O)O)cn2)C[C@H]1CC [Obicetrapib, (2R,4S)-4-{[3,5-bis(trifluoromethyl)benzyl]-[5-(3-carboxypropoxy)pyrimidin-2-yl]amino}-2-ethyl-6-trifluoromethyl-3,4-dihydro-2H-quinoline-1-carboxylic acid ethyl ester]
- Basal cell carcinoma ([1]; 5 mg (n=40)): 0 (0.0) n (%)
- Fatigue ([1]; 5 mg (n=40)): 2 (5.0) n (%)
- Gastrointestinal disorders ([1]; 5 mg (n=40)): 3 (7.5) n (%)
- General disorders and administration site conditions ([1]; 5 mg (n=40)): 3 (7.5) n (%)
- Hypertension ([1]; 5 mg (n=40)): 2 (5.0) n (%)
- Infections and infestations ([1]; 5 mg (n=40)): 1 (2.5) n (%)
- Injury, poisoning and procedural complications ([1]; 5 mg (n=40)): 3 (7.5) n (%)
- Investigations ([1]; 5 mg (n=40)): 2 (5.0) n (%)
- Metabolism and nutrition disorders ([1]; 5 mg (n=40)): 2 (5.0) n (%)
- Muscle spasms ([1]; 5 mg (n=40)): 0 (0.0) n (%)
- Musculoskeletal and connective tissue disorders ([1]; 5 mg (n=40)): 4 (10.0) n (%)
- Nausea ([1]; 5 mg (n=40)): 1 (2.5) n (%)
- Nervous system disorders ([1]; 5 mg (n=40)): 2 (5.0) n (%)
- Respiratory, thoracic and mediastinal disorders ([1]; 5 mg (n=40)): 2 (5.0) n (%)
- Type 2 diabetes mellitus ([1]; 5 mg (n=40)): 2 (5.0) n (%)
- Vascular disorders ([1]; 5 mg (n=40)): 2 (5.0) n (%)
- Neoplasms benign, malignant and unspecified ([1]; 5 mg (n=40)): 0 (0.0) n (%)
- tolerability / safety profile ([1]; 5 mg and 10 mg on top of high intensity statin therapy): well tolerated with a safety profile similar to placebo
- AEs, related: number of events ([1]; 5 mg group (N=40)): 2
- AEs, related: subjects (%) ([1]; 5 mg group (N=40)): 2 (5.0)
- AEs, severe ([1]; 5 mg group (N=40)): 0
- AEs, total: number of events ([1]; 5 mg group (N=40)): 24
- Deaths ([1]; 5 mg group (N=40)): 0
- SAEs, related ([1]; 5 mg group (N=40)): 0
- SAEs, total ([1]; 5 mg group (N=40)): 0
- TEAEs leading to discontinuation of study drug ([1]; 5 mg group (N=40)): 0
- TESAEs leading to discontinuation of study ([1]; 5 mg group (N=40)): 0
- AEs, total: subjects (%) ([1]; 5 mg group (N=40)): 13 (32.5)
- AEs, total: subjects (%) [1, 3]: 15
- AEs, related: subjects (%) [1, 3]: 2
- Basal cell carcinoma ([1]; 10 mg (n=40)): 0 (0.0) n (%)
- Fatigue ([1]; 10 mg (n=40)): 1 (2.5) n (%)
- Gastrointestinal disorders ([1]; 10 mg (n=40)): 0 (0.0) n (%)
- General disorders and administration site conditions ([1]; 10 mg (n=40)): 2 (5.0) n (%)
- Hypertension ([1]; 10 mg (n=40)): 0 (0.0) n (%)
- Infections and infestations ([1]; 10 mg (n=40)): 0 (0.0) n (%)
- Injury, poisoning and procedural complications ([1]; 10 mg (n=40)): 1 (2.5) n (%)
- Investigations ([1]; 10 mg (n=40)): 0 (0.0) n (%)
- Metabolism and nutrition disorders ([1]; 10 mg (n=40)): 0 (0.0) n (%)
- Muscle spasms ([1]; 10 mg (n=40)): 0 (0.0) n (%)
- Musculoskeletal and connective tissue disorders ([1]; 10 mg (n=40)): 4 (10.0) n (%)
- Nausea ([1]; 10 mg (n=40)): 0 (0.0) n (%)
- Nervous system disorders ([1]; 10 mg (n=40)): 2 (5.0) n (%)
- Respiratory, thoracic and mediastinal disorders ([1]; 10 mg (n=40)): 0 (0.0) n (%)
- Type 2 diabetes mellitus ([1]; 10 mg (n=40)): 0 (0.0) n (%)
- Vascular disorders ([1]; 10 mg (n=40)): 0 (0.0) n (%)
- Neoplasms benign, malignant and unspecified ([1]; 10 mg (n=40)): 0 (0.0) n (%)
- AEs, related: number of events ([1]; 10 mg group (N=40)): 1
- AEs, related: subjects (%) ([1]; 10 mg group (N=40)): 1 (2.5)
- AEs, severe ([1]; 10 mg group (N=40)): 0
- AEs, total: number of events ([1]; 10 mg group (N=40)): 11
- Deaths ([1]; 10 mg group (N=40)): 0
- SAEs, related ([1]; 10 mg group (N=40)): 0
- SAEs, total ([1]; 10 mg group (N=40)): 0
- TEAEs leading to discontinuation of study drug ([1]; 10 mg group (N=40)): 0
- TESAEs leading to discontinuation of study ([1]; 10 mg group (N=40)): 0
- AEs, total: subjects (%) ([1]; 10 mg group (N=40)): 8 (20.0)
- AEs, total: subjects (%) [1, 4]: 8
- AEs, related: subjects (%) [1, 4]: 1
- laboratory parameters (chemistry, hematology, urinalysis) [1, 5]: no signals in any laboratory parameters
- vital signs [1, 5]: no changes in vital signs
- Plasma obicetrapib levels decreased by (median) ([2]; 5 mg group, 4 weeks after the end-of-treatment): 92%
- Plasma obicetrapib levels decreased by (median) ([2]; 5 mg group, 8 weeks after the end-of-treatment): 98%
- Plasma obicetrapib levels decreased by (median) ([2]; 5 mg group, 15 weeks after the end-of-treatment): 99%
- Plasma obicetrapib levels decreased by (median) ([2]; 10 mg group, 4 weeks after the end-of-treatment): 93%
- Plasma obicetrapib levels decreased by (median) ([2]; 10 mg group, 8 weeks after the end-of-treatment): 98%
- Plasma obicetrapib levels decreased by (median) ([2]; 10 mg group, 15 weeks after the end-of-treatment): 99%
- nearly completely cleared from circulation by (time post-treatment) ([2]; after 8 weeks of once daily treatment): 4-8 weeks
